In US20240100063A1, “COMBINATION THERAPY OF PD-1 AXIS BINDING ANTAGONISTS AND LRRK2 INHITIBORS” (Hoffmann-La Roche Inc., priority 2020, published 2024):
“Also recorded” adds a separate entry of the source.

Legend:
[1] = tested on: MART-1 T Cells; test: MART-1 T cell proliferation upon co-culture with pre-treated human cord blood derived dendritic cells; assay type: cell-based; conditions: human MART-1 T cells primed by human cord blood derived dendritic cells, FIG. 4-F
Description: (§1) Cells were stained with anti-mouse H-2Kb/[…] antibody. […] F) FACS evaluation of human MART-1 T cell proliferation, upon co-culture with human cord blood derived dendritic cells pre-treated with the LRRK2 inhibitor LRRK2-IN-1. All the experiments were performed in triplicates.
(§2) Subsequently, we investigate whether the pre-treatment of freshly isolated mouse splenic dendritic cells with increasing concentrations of the compounds can enhance the OT-1 CD8a T cells activation upon co-culture. […] Finally, as for the genetic validation in DC2.4, we challenge the splenic derived dendritic cells treated with the different compounds in a killing assay were we measured the MC38 RFP-OVA cancer cell viability upon 6 days of co-culture with OT-1 CD8a T cells primed by mouse splenic dendritic cells pre-treated with the two LRRK2 inhibitors (FIG. 5-A).

[2] = tested on: MV3 cancer cells; test: killing assay: MV3 viability upon co-culture with MART-1 T cells primed by pre-treated human cord blood derived dendritic cells; assay type: cell-based; conditions: 6 days killing assay, increasing concentration, human setting
From the text: (§3) A, E) Schematic representation of the killing assay experimental setup respectively in mouse and human setting. […] Data are normalized to DMSO treated dendritic cells co-cultured with CD8a T cells. F) Evaluation of MV3 cancer cells viability upon co-cultured with MART-1 T Cells primed by human cord blood derived dendritic cells pre-treated with the LRRK2 inhibitor LRRK2-IN-1. Data are normalized to MV3 cells co-cultured with T cells primed in the absence of MART1 peptide. All the experiments were performed in triplicates.
as §2

[3] = tested on: DC2.4 SCR cells; test: antigen cross-presentation assay on DC2.4 cells (FACS, anti-mouse H-2Kb/[…] antibody); assay type: cell-based; conditions: overnight administration
Description: as §1, §2

[4] = tested on: MC38 RFP-OVA cancer cells
From the text: as §3, §2

[5] = tested on: 403 non-mutated kinases; test: KINOMEScan in vitro kinase selectivity assay; assay type: binding, human; conditions: for number of different kinases whose binding is inhibited by 90% or more: at 0.1 μM, 403 non-mutated kinases; for number of unrelated kinases inhibited to >90%: at lowest concentration to inhibit >90 LRRK2 (0.1 uM)
Description: FIG. 10: In vitro kinase selectivity test. […] As a reference, the pan-kinase inhibitor sunitinib was tested.
As a reference, the pan-kinase inhibitor sunitinib was tested.
Kinases other than LRRK2 are herein referred to as unrelated kinases. A selectivity score S can be determined to quantify selectivity, as shown in Example 8. In one embodiment, the selectivity score S(65) of the inhibitor (e.g. the LRRK2 inhibitor) is defined as the ratio of number of kinases inhibited by 65% of binding to their ligand as compared to binding to their ligand without the inhibitor divided by the number of kinases tested. In one embodiment, the selectivity score S(90) of the inhibitor (e.g. the LRRK2 inhibitor) is defined as the ratio of number of kinases inhibited by 90% of binding to their ligand as compared to binding to their ligand without the inhibitor divided by the number of kinases tested. In one embodiment, the selectivity score S(99) of the inhibitor (e.g. the LRRK2 inhibitor) is defined as the ratio of number of kinases inhibited by 99% of binding to their ligand as compared to binding to their ligand without the inhibitor divided by the number of kinases tested. In one embodiment, the selectivity score S is determined for a specified concentration (e.g., 0.1 μM, 1 μM, or 10 μM) of the inhibitor (e.g. the LRRK2 inhibitor). Kinase—ligand binding (and inhibition thereof) can be measured using assays as known in the art and hereinbefore described and as described in Example 8.
(§4) The in vitro kinase selectivity for the tested compounds were determined by running a KINOMEScan® (DiscoverX, CA, USA). […] Selectivity scores S(65), S(90) and S (99) in FIG. 11 are calculated as the ratio of number of non-mutated kinases inhibited by 65%, 90 or 99% divided by the total number of non-mutated kinases tested.

[6] = tested on: MC-38 tumor cells; test: in vivo tumor growth, immunocompetent C57BL/6 mice engrafted with MC-38 tumor cells; conditions: anti-PD-L1 10 mg/kg i.v. once then 5 mg/kg i.p. twice per week; for MC-38 tumor growth in comparison with vehicle treated mice: PFE-360 7.5 mg/kg, Mli-2 10 mg/kg per os twice per day, day zero to day 28
Description: (§5) The experiment was carried out with 6-8 weeks female C57BL/6 mice from Janvier Labs. All procedures described in this study have been reviewed and approved by the local ethic committee (CELEAG) and validated by the French Ministry of Research. Mice was hosted in TCS BSL-2 facility by groups of 5 individuals. Mice were allowed to acclimate to the environment for 5 days prior to the beginning of the experiment. During the efficacy study, mice were monitored daily for unexpected signs of distress. Body weight was monitored 3 times a week. Mice with a cumulative clinical score or with a body weight loss >25% were sacrificed.
Mice were injected subcutaneously with 0.5×10^6 MC-38 tumor cells in 50% Matrigel. Tumor cell engraftment was defined as day zero. At day 8, mice were randomized into 4 groups of 10 mice each, according to the tumor volume. Treatments were initiated at day 9, when the average tumor volume reached ˜150 mm3 as follows: • Group 1: vehicle, dose 200 μL twice per day per os, twice per week intraperitoneal and intravenously once at day 8 • Group 2: 7915: dose 300 mg/kg per os administration twice per day. • Group 3: anti PD-L1 (clone 6E11, atezolizumab mouse surrogate): dose 10 mg/kg intravenous injection once at day 8 and dose 5 mg/kg intraperitoneal injection twice per week. • Group 4: 7915+anti-PD-L1 (clone 6E11, atezolizumab mouse surrogate): dose 300 mg/kg per os injection twice per day. Anti PD-L1: dose 10 mg/kg intravenous injection once at day 8 and dose 5 mg/kg intraperitoneal injection twice per week.
7915 (cat. num. HY-18163 from MedChemExpress). LRRK2 inhibitor was administered as free base suspensions in vehicle [1% (w/v) Avicel RC-591 and 0.2% (v/v) polysorbate 80 (Tween 80) in reverse osmosis water].
The aim of this study was to address the in vivo effect on tumor progression of LRRK2 kinase inhibition by using the LRRK2 inhibitor 7915, alone or in combination with anti-PD-L1, in immunocompetent mice engrafted with MC-38 tumor cells. C57BL/6 mice were injected subcutaneously with 0.5×10^6 MC-38 tumor cells. Tumor cell engraftment was defined as day zero. […]

[7] = tested on: MC-38 tumor cells; test: in vivo tumor growth, immuno-deficient NSG mice engrafted with MC-38 tumor cells; design: species or system mouse
Description: as §5, with “NSG” for “C57BL/6”, “Jackson Laboratory.” for “Janvier Labs.”
Mice were injected subcutaneously with 0.5×10^6 MC-38 tumor cells in 50% Matrigel. Tumor cell engraftment was defined as day zero. At day 9, mice were randomized into 2 groups of 12 mice each, according to the tumor volume. Treatments were initiated at day 10, when the average tumor volume reached ˜150 mm3 as follows: • Group 1: vehicle, dose 200 μL twice per day per os • Group 2: GNE-7915: dose 300 mg/kg per os administration twice per day.
GNE-7915 (cat. num. HY-18163 from MedChemExpress). LRRK2 inhibitor was administered as free base suspensions in vehicle [1% (w/v) Avicel RC-591 and 0.2% (v/v) polysorbate 80 (Tween 80) in reverse osmosis water].
The aim of this study was to address the in vivo effect on tumor progression of LRRK2 kinase inhibition by using the LRRK2 inhibitor GNE-7915, in immuno-deficient mice engrafted with MC-38 tumor cells. NSG mice were injected subcutaneously with 0.5×10^6 MC-38 tumor cells. Tumor cell engraftment was defined as day zero. At day 9, mice were randomized into 2 groups.
Mice were injected subcutaneously with 0.5×10^6 MC-38 tumor cells in 50% Matrigel. Tumor cell engraftment was defined as day zero. At day 9, mice were randomized into 2 groups of 12 mice each, according to the tumor volume.
PFE-360 (cat. num. HY-120085 from MedChemExpress). […] LRRK2 inhibitors were administered as free base suspensions in vehicle [1% (w/v) Avicel RC-591 and 0.2% (v/v) polysorbate 80 (Tween 80) in reverse osmosis water]. […]

[8] = molecular target: LRRK2 (Homo sapiens, UniProt Q5S007); test: KINOMEScan in vitro kinase selectivity assay, LRRK2; assay type: binding
LRRK2, sequence (Q5S007 whole entry): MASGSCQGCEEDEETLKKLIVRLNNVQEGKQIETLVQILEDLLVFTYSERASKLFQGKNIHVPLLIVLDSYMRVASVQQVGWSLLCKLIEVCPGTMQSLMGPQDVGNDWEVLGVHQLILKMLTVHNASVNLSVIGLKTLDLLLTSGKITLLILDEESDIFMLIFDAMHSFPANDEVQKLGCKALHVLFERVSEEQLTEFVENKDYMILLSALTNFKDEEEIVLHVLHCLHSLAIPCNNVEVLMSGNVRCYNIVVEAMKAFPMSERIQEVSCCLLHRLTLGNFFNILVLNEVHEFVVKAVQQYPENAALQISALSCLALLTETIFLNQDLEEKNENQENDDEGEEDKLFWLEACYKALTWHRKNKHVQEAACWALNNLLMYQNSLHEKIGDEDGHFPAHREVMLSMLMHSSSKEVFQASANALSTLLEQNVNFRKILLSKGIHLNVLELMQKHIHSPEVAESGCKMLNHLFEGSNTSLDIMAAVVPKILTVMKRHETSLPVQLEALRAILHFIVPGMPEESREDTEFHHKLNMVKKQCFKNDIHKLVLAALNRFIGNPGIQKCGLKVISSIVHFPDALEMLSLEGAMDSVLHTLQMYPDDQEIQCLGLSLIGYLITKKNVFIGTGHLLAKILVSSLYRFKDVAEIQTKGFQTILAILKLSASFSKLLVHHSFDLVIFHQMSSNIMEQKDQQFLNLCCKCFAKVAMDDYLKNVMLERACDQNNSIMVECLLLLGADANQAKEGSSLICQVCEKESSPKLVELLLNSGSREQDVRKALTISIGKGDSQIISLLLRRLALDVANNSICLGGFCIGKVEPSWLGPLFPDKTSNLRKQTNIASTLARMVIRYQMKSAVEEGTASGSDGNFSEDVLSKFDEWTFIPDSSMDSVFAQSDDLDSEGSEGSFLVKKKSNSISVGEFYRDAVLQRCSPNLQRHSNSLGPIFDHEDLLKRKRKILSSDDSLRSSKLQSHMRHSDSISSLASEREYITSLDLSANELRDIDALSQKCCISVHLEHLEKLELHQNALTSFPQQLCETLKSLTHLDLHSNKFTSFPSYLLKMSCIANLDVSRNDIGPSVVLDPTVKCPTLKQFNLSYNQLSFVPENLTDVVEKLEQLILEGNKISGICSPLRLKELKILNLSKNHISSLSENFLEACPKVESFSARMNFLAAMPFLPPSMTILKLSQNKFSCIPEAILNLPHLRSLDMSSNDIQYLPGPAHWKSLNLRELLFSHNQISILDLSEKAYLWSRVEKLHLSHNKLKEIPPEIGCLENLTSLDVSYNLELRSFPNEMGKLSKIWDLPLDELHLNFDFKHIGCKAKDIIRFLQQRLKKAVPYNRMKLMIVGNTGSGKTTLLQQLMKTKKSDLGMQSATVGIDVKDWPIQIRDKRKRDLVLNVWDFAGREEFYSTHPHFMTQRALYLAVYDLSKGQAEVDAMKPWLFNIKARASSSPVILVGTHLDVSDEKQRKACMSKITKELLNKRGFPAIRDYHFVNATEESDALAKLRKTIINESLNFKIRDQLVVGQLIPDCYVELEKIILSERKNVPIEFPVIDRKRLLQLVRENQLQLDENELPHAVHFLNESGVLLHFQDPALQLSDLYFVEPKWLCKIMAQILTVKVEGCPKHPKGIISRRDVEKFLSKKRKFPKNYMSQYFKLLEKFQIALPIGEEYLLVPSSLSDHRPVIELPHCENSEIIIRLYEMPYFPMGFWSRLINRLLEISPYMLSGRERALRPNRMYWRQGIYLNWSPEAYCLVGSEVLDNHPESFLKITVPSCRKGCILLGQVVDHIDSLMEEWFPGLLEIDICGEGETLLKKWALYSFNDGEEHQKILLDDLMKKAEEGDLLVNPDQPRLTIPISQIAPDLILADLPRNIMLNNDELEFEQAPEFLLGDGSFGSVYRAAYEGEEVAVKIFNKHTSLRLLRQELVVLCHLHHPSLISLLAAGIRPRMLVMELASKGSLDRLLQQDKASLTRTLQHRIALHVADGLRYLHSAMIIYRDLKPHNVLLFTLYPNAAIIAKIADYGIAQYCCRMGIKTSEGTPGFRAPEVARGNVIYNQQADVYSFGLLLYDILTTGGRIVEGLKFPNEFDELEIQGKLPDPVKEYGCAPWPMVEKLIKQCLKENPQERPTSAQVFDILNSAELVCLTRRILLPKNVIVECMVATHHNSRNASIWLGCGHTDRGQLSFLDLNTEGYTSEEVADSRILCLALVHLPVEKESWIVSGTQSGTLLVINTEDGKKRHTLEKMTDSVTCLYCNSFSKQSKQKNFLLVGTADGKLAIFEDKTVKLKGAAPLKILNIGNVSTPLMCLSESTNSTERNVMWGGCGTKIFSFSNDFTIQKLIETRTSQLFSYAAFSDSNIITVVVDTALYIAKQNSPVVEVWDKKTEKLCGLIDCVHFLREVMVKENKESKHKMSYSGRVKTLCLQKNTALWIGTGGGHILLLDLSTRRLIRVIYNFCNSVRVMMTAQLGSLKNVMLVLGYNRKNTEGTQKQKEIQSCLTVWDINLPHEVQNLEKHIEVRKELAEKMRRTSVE
Description: as §4

[9] = tested on: OT-1 CD8a T cells; test: OT-1 CD8a T cell proliferation upon co-culture with dendritic cells pre-treated with LRRK2 inhibitors; assay type: cell-based, mouse
Description: as §1, §2

[10] = PFE-360 7.5 mg/kg, Mli-2 10 mg/kg per os twice per day, day zero to day 24

## COc1cc(C(=O)N2CCC(N3CCN(C)CC3)CC2)ccc1Nc1ncc2c(n1)N(C)c1ccccc1C(=O)N2C [LRRK2-IN-1, 2-[2-methoxy-4-[4-(4-methylpiperazin-1-yl)piperidine-1-carbonyl]anilino]-5,11-dimethyl-pyrimido[4,5-b][1,4]benzodiazepin-6-one]
[1]
  cross-presentation mediated T cell proliferation: already at lowest concentration a stable increase; also recorded: increased the T cells proliferation
[2]
  MV3 cancer cell viability: dose dependent reduction of MV3 cancer cell viability
[3]
  concentration showing an effect on antigen cross-presentation: 1 µM

## C[C@@H]1CN(c2cc(-c3n[nH]c4ccc(OC5(C)CC5)cc34)ncn2)C[C@H](C)O1 [MLi-2, cis-2,6-dimethyl-4-[6-[5-(1-methylcyclopropoxy)-1H-indazol-3-yl]pyrimidin-4-yl]morpholine]
[4]
  T cell mediated cytotoxicity (MC38 RFP-OVA cancer cell viability): increased T cell mediated cytotoxicity
[5]
  number of different kinases whose binding is inhibited by 90% or more: three
  number of unrelated kinases inhibited to >90%: 3
[6]
  MC-38 tumor growth in comparison with vehicle treated mice: inducing tumor growth inhibition; also recorded: significantly decrease MC-38 tumor growth
[7]; [10]
  MC-38 tumor growth in comparison with vehicle treated mice: not modifying tumor growth; also recorded: not impacting MC-38 tumor growth

## Cn1cc(-c2c[nH]c3ncnc(N4CCOCC4)c23)cc1C#N [PFE-360, 1-methyl-4-(4-morpholino-7H-pyrrolo[2,3-d]pyrimidin-5-yl)pyrrole-2-carbonitrile]
[5]
  number of different kinases whose binding is inhibited by 90% or more: 9
  number of unrelated kinases inhibited to >90%: 9
[5]; at all concentration on average
  fold more selective than sunitinib: ~2 fold
[6]
  MC-38 tumor growth in comparison with vehicle treated mice: inducing tumor growth inhibition; also recorded: significantly decrease MC-38 tumor growth
[8]
  inhibition at 0.1 µM: 100%
[7]; [10]
  MC-38 tumor growth in comparison with vehicle treated mice: not modifying tumor growth; also recorded: not impacting MC-38 tumor growth

## CCNc1nc(Nc2cc(F)c(C(=O)N3CCOCC3)cc2OC)ncc1C(F)(F)F [compound 7915, [4-[[4-(ethylamino)-5-(trifluoromethyl)pyrimidin-2-yl]amino]-2-fluoro-5-methoxy-phenyl]-morpholino-methanone]
[4]
  T cell mediated cytotoxicity (MC38 RFP-OVA cancer cell viability): increased T cell mediated cytotoxicity
[6]; MC-38, vs vehicle, 7915 300 mg/kg per os twice per day, day zero to day 15
  tumor growth inhibition: 82%
[9]; murine OT1 CD8a T cells, FIG. 4-H
  cross-presentation mediated T cell proliferation: already at lowest concentration a stable increase
[7]; GNE-7915 300 mg/kg per os twice per day, day zero to day 21, 300 mg/kg
  MC-38 tumor growth in comparison with vehicle treated mice: not modifying tumor growth; also recorded: not impacting MC-38 tumor growth

## CNc1nc(Nc2cnn(C3CCN(C4COC4)CC3F)c2Cl)ncc1C(F)(F)F (stereo not drawn) [compound 9605, N2-[5-chloro-1-[3-fluoro-1-(oxetan-3-yl)-4-piperidyl]pyrazol-4-yl]-N4-methyl-5-(trifluoromethyl)pyrimidine-2,4-diamine]
[4]
  T cell mediated cytotoxicity (MC38 RFP-OVA cancer cell viability): increased T cell mediated cytotoxicity
[9]; OT-1 CD8a T cells co-cultured with pre-treated mouse splenic dendritic cells
  concentration at which increased T cell proliferation is shown: ≥ 100 nM

## CCN(CC)CCNC(=O)c1c(C)[nH]c(/C=C2\C(=O)Nc3ccc(F)cc32)c1C [sunitinib]
[8]
  inhibition at 0.1 µM: < 50%
